Publication PMC4278257 (International Journal of Biological Sciences, 2015)
Positions count from the first letter of the chain named. Entries after “also recorded” stand apart in the source; their conditions may differ. Read-outs that look alike come from different tables or passages of the source.

Legend:
SlitOBP1 = target: T1, SlitOBP1 (Spodoptera litura, UniProt A1Z1R1); assay: Fluorescence competitive binding assay with 1-NPN, recombinant SlitOBP1; details: for binding to SlitOBP1 in the competitive fluorescence binding assay, in words: wild-type SlitOBP1, displacement of 1-NPN
T1 sequence (A1Z1R1 20-164): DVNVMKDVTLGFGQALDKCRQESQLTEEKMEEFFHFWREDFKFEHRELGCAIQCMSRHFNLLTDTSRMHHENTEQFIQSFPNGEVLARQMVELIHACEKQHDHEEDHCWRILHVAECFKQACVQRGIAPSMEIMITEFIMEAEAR

[1] = target: T2, SlitOBP1 Trp37 (tryptophan to alanine) (Spodoptera litura, UniProt A1Z1R1, W56A); assay: Fluorescence binding assay with 1-NPN, mutant SlitOBP1 Trp37
T2 sequence (A1Z1R1 20-164 W56A): T1 sequence (A1Z1R1 20-164) with W37A

[2] = target: T3, SlitOBP1 Phe12 (phenylalanine to alanine) (Spodoptera litura, UniProt A1Z1R1, F31A); assay: Fluorescence binding assay with 1-NPN, mutant SlitOBP1 Phe12
T3 sequence (A1Z1R1 20-164 F31A): T1 sequence (A1Z1R1 20-164) with F12A

[3] = target: T4, SlitOBP1 Ile52 (isoleucine to alanine) (Spodoptera litura, UniProt A1Z1R1, I71A); assay: Fluorescence binding assay with 1-NPN, mutant SlitOBP1 Ile52
T4 sequence (A1Z1R1 20-164 I71A): T1 sequence (A1Z1R1 20-164) with I52A

[4] = target: T5, SlitOBP1 Glu98 (glutamic to alanine) (Spodoptera litura, UniProt A1Z1R1, E117A); assay: Fluorescence binding assay with 1-NPN, mutant SlitOBP1 Glu98
T5 sequence (A1Z1R1 20-164 E117A): T1 sequence (A1Z1R1 20-164) with E98A

[5] = target: T6, SlitOBP1 Thr9 (threonine to alanine) (Spodoptera litura, UniProt A1Z1R1, T28A); assay: Fluorescence binding assay with 1-NPN, mutant SlitOBP1 Thr9
T6 sequence (A1Z1R1 20-164 T28A): T1 sequence (A1Z1R1 20-164) with T9A

[6] = 2 μM SlitOBP1, 2 μM 1-NPN, ligand 0-20 μM, unit inferred

SMILES	Ki (SlitOBP1) [µM]	IC50 (SlitOBP1; [6]) [µM]	binding to SlitOBP1 in the competitive fluorescence binding assay, in words (SlitOBP1)	other results
O=C(O)C(F)(F)C(F)(F)C(F)(F)C(F)(F)C(F)(F)C(F)(F)C(F)(F)C(F)(F)F [375-95-1, Perfluorononanoic acid]	3.76	6.08	high affinities; also recorded: could effectively displace 1-NPN	
N#CC(F)(F)C(F)(F)C(F)(F)C(F)(F)C(F)(F)C(F)(F)C(F)(F)C(F)(F)C#N [2342-09-8, Perfluorosebaconitrile]			no binding potential	
O=C(O)C(F)(F)C(F)(F)C(F)(F)C(F)(F)C(F)(F)C(F)(F)C(F)(F)C(F)(F)Cl [865-79-2, 9-Chlorohexadecafluorononanoic acid]	3.73		high affinities; also recorded: could effectively displace 1-NPN	IC50 (SlitOBP1): 6 µM
N[C@@H](Cc1ccc(O)cc1)C(=O)OCc1ccccc1 [42406-77-9, L-Tyrosine benzyl ester]	4.47	7.23		
c1ccc(Nc2cccc3ccccc23)cc1 [1-NPN, N-phenyl-1-naphthylamine, reference compound]				Kd [1]: 4.54 ± 0.28 µM; Kd (SlitOBP1): 3.24 ± 0.2 µM; Kd [2]: 6.78 ± 0.25 µM; Kd [3]: 5.43 ± 0.31 µM; Kd [4]: 3.67 ± 0.25 µM; Kd [5]: 4.21 ± 0.19 µM
CC[C@H](C)[C@H](NC(=O)[C@@H](N)CCCCN)C(=O)O [20556-13-2, H-Lys-Ile-OH]	4.65	7.52		
C[C@]12C=CC(=O)C=C1CC[C@@H]1[C@@H]2[C@@H](O)C[C@@]2(C)[C@H]1CC[C@]2(O)C(=O)CO [50-24-8, 11β,17α,21-trihydroxypregna-1,4-diene-3,20-dione, reference compound]	3.1	5.02	high affinities; also recorded: could effectively displace 1-NPN	
CC(=O)[C@H]1CC[C@H]2[C@@H]3CC=C4C[C@@H](O)CC[C@]4(C)[C@H]3CC[C@]12C [145-13-1, Delta-5-pregnenolone]	9.13	14.8		
C[C@]12C=CC(=O)C=C1CC[C@@H]1[C@@H]2C(=O)C[C@@]2(C)[C@H]1CC[C@]2(O)C(=O)CO [53-03-2, 1,2-Dehydrocortisone, reference compound]	3.09	5	high affinities; also recorded: could effectively displace 1-NPN	
NC(=O)[C@@H]1CCCN1C(=O)[C@H](Cc1cnc[nH]1)NC(=O)[C@@H]1CCC(=O)N1 [24305-27-9, Pyr-His-Pro-NH2]	4.44	7.18		
NCCC(F)(F)C(F)(F)C(F)(F)C(F)(F)C(F)(F)C(F)(F)C(F)(F)C(F)(F)F [30670-30-5, 1H,1H,2H,2H-perfluorodecylamine]			no binding potential	
OCC(F)(F)C(F)(F)C(F)(F)C(F)(F)C(F)(F)C(F)(F)C(F)(F)C(F)(F)CO [754-96-1, 1H,1H,10H,10H-perfluoro-1,10-decanediol]	4.13	6.68		
OCCC(F)(F)C(F)(F)C(F)(F)C(F)(F)C(F)(F)C(F)(F)C(F)(F)C(F)(F)F [678-39-7, 1H,1H,2H,2H-perfluoro-1-decanol]	3.69	5.97		binding to the mutant compared with the wild type, in words ([1]; mutant Trp37): better binding activities
CC(C)(C)OC(=O)C[C@H](NC(=O)OCc1ccccc1)C(=O)O [5545-52-8, N-Cbz-L-Aspartic acid 4-tert-butyl ester]	4.14			IC50 (SlitOBP1): 6.7 µM
OCC(F)(F)C(F)(F)C(F)(F)C(F)(F)C(F)(F)C(F)(F)C(F)(F)CO [203303-01-9, 1H,1H,9H,9H-perfluoro-1,9-nonanediol]	5.84	9.45		
CC(=O)[C@@]12O[C@@H]1C[C@H]1[C@@H]3CC=C4C[C@@H](O)CC[C@]4(C)[C@H]3CC[C@@]12C [974-23-2, 16,17-epoxypregnenolone]	5.12	8.28		
NCC(=O)NC(Cc1ccc(O)cc1)C(=O)NCC(=O)O (stereo not drawn) [6099-08-7, H-Gly-Tyr-Gly-OH]	3.78	6.11		binding to the mutant compared with the wild type, in words ([4]; mutant Glu98): better binding activities; binding to the mutant compared with the wild type, in words ([5]; mutant Thr9): better binding activities
